Experimental data: ChEMBL document CHEMBL4321867, “Optimization of LpxC Inhibitor Lead Compounds Focusing on Efficacy and Formulation for High Dose Intravenous Administration” (J Med Chem, 2020)
In brackets after ≈: the same amount, converted by molar mass.

Key:
[1] = test system: T1, UDP-3-O-acyl-N-acetylglucosamine deacetylase (Escherichia coli K-12), P0A725 [C125S]; conditions: 25 uM
T1 sequence (whole entry): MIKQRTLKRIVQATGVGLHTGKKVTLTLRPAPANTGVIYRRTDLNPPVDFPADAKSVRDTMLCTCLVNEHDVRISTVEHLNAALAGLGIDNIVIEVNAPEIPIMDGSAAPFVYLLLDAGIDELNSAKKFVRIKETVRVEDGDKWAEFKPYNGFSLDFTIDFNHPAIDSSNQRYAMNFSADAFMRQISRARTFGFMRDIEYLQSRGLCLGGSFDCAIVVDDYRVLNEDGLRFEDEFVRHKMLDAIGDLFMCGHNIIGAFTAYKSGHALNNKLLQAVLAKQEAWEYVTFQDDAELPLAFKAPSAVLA

[2] = test system: T2, UDP-3-O-acyl-N-acetylglucosamine deacetylase (Pseudomonas aeruginosa (strain ATCC 15692 / PAO1 / 1C / PRS 101 / LMG12228)), P47205 [C40S]; conditions: 25 uM
T2 sequence (whole entry): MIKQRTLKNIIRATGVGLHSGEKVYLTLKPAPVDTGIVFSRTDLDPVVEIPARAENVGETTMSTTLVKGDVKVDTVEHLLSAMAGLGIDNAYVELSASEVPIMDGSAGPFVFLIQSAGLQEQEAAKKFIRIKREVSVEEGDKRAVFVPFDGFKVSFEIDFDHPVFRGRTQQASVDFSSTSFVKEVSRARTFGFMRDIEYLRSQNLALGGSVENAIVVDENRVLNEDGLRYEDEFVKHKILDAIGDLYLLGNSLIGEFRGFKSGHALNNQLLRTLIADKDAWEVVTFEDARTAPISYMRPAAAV

physchem [3] = conditions: n-octanol/phosphate buffer, pH 7.4
physchem [4] = experiment: physchem
physchem [5] = conditions: buffer, pH 4
physchem [6] = conditions: buffer, pH 7
physchem [7] = conditions: buffer, pH 9
Escherichia coli = experiment: microbe, parasite or virus in culture; conditions: ATCC 25922
Klebsiella pneumoniae = experiment: microbe, parasite or virus in culture; conditions: T6474
Pseudomonas aeruginosa = experiment: microbe, parasite or virus in culture; conditions: ATCC 27853
in vitro [8] = conditions: rat, hepatocytes
in vitro [9] = conditions: rat, liver microsomes

Compound	deltaTm [1] [K]	deltaTm [2] [K]	logD (physchem [3])	pKa (physchem [4])	solubility at 24 h (physchem [5]) [µg/mL]	solubility at 24 h (physchem [6]) [µg/mL]	solubility at 24 h (physchem [7]) [µg/mL]	MIC (Escherichia coli) [µg/mL]	MIC (Klebsiella pneumoniae) [µg/mL]	MIC (Pseudomonas aeruginosa) [µg/mL]	hepatocyte CLint at 1 µM (in vitro [8]) [µL/min/1e6 cells]	microsomal CLint at 1 µM (in vitro [9]) [µL/min/mg]
C[C@@](CCN1Cc2cc(C#CC#CC3(CN)CC3)cn2C1=O)(C(=O)NO)S(C)(=O)=O	9.6	10.7	-0.4	9.2	> 730	552 (≈ 1280 µM)	> 730	8 (≈ 18.5 µM)	16 (≈ 37 µM)	16 (≈ 37 µM)	–	–
CN1CCC(F)(C#CC#Cc2cc3n(c2)C(=O)N(CC[C@](C)(C(=O)NO)S(C)(=O)=O)C3)CC1	9.6	12	1	8	> 810	384 (≈ 802 µM)	203 (≈ 424 µM)	0.5 (≈ 1.04 µM)	1 (≈ 2.09 µM)	1 (≈ 2.09 µM)	–	–
C[C@@](CCN1Cc2cc(C#CC#CC3(F)CNC3)cn2C1=O)(C(=O)NO)S(C)(=O)=O	7.1	10	0.3	8	> 740	175 (≈ 401 µM)	279 (≈ 639 µM)	1 (≈ 2.29 µM)	2 (≈ 4.58 µM)	2 (≈ 4.58 µM)	–	–
CN1CC(C#CC#Cc2cc3n(c2)C(=O)N(CC[C@](C)(C(N)=O)S(C)(=O)=O)C3)C1	0	0.3	0.5	8.4	> 700	706 (≈ 1700 µM)	92 (≈ 221 µM)	> 32	> 32	> 32	–	–
C[C@@](CCN1Cc2cc(C#CC#C[C@@H]3C[C@H]3CO)cn2C1=O)(C(=O)NO)S(C)(=O)=O	–	–	–	–	600 (≈ 1380 µM)	602 (≈ 1390 µM)	552 (≈ 1270 µM)	0.12 (≈ 0.277 µM)	0.25 (≈ 0.577 µM)	0.5 (≈ 1.15 µM)	13.4	< 10
CC(C)N1CC(C#CC#Cc2cc3n(c2)C(=O)N(CC[C@](C)(C(=O)NO)S(C)(=O)=O)C3)C1	9.6	11.2	1	8.3	> 780	398 (≈ 864 µM)	420 (≈ 912 µM)	0.25 (≈ 0.543 µM)	0.25 (≈ 0.543 µM)	0.5 (≈ 1.09 µM)	–	–
CN(C)C1(C#CC#Cc2cc3n(c2)C(=O)N(CC[C@](C)(C(=O)NO)S(C)(=O)=O)C3)CC1	11.6	13.4	2.1	5.5	412 (≈ 923 µM)	15 (≈ 33.6 µM)	95 (≈ 213 µM)	0.25 (≈ 0.56 µM)	0.5 (≈ 1.12 µM)	0.5 (≈ 1.12 µM)	–	–
C[C@@](CCN1Cc2cc(C#CC#CCN3CCC(O)CC3)cn2C1=O)(C(=O)NO)S(C)(=O)=O	9.5	11.5	0.4	6.5	> 810	> 810	> 810	1 (≈ 2.1 µM)	2 (≈ 4.2 µM)	1 (≈ 2.1 µM)	–	–
CC(=O)N1CC(C#CC#Cc2cc3n(c2)C(=O)N(CC[C@](C)(C(=O)NO)S(C)(=O)=O)C3)C1	9.7	12.4	0.3	–	> 780	> 780	> 780	1 (≈ 2.17 µM)	1 (≈ 2.17 µM)	1 (≈ 2.17 µM)	–	–
CCN1CC(C#CC#Cc2cc3n(c2)C(=O)N(CC[C@](C)(C(=O)NO)S(C)(=O)=O)C3)C1	9.3	10.4	0.6	8.5	> 750	> 750	> 750	0.25 (≈ 0.56 µM)	0.5 (≈ 1.12 µM)	0.5 (≈ 1.12 µM)	–	–
C[C@@](CCN1Cc2cc(C#CC#CC3CN(CC(F)F)C3)cn2C1=O)(C(=O)NO)S(C)(=O)=O	10.6	13.2	1.4	5.2	> 820	209 (≈ 433 µM)	> 820	0.06 (≈ 0.124 µM)	0.25 (≈ 0.518 µM)	1 (≈ 2.07 µM)	–	–
C[C@@](CCN1Cc2cc(C#CC#CC3CN(C4COC4)C3)cn2C1=O)(C(=O)NO)S(C)(=O)=O	10.5	12.6	0.5	5.5	> 800	128 (≈ 270 µM)	681 (≈ 1440 µM)	0.25 (≈ 0.527 µM)	0.5 (≈ 1.05 µM)	1 (≈ 2.11 µM)	–	–
C[C@@](CCN1Cc2cc(C#CC#CC3CCN(C4COC4)CC3)cn2C1=O)(C(=O)NO)S(C)(=O)=O	11.1	13.2	1.1	6.2	> 850	329 (≈ 655 µM)	> 850	0.5 (≈ 0.995 µM)	1 (≈ 1.99 µM)	2 (≈ 3.98 µM)	–	–
CN1CC(F)(C#CC#Cc2cc3n(c2)C(=O)N(CC[C@](C)(C(=O)NO)S(C)(=O)=O)C3)C1	8.1	11.6	1.1	6.7	> 760	219 (≈ 486 µM)	> 760	0.12 (≈ 0.266 µM)	0.5 (≈ 1.11 µM)	2 (≈ 4.44 µM)	–	–
CNC1(C#CC#Cc2cc3n(c2)C(=O)N(CC[C@](C)(C(=O)NO)S(C)(=O)=O)C3)CC1	10.6	12.2	1.4	6.5	551 (≈ 1270 µM)	182 (≈ 421 µM)	486 (≈ 1120 µM)	0.12 (≈ 0.277 µM)	0.25 (≈ 0.578 µM)	0.5 (≈ 1.16 µM)	–	–
C[C@@](CCN1Cc2cc(C#CC#CC3CNC3)cn2C1=O)(C(=O)NO)S(C)(=O)=O	8	9.3	-1	9.4	> 710	> 710	> 710	8 (≈ 19.1 µM)	4 (≈ 9.56 µM)	1 (≈ 2.39 µM)	–	–
CN1CCC(C#CC#Cc2cc3n(c2)C(=O)N(CC[C@](C)(C(=O)NO)S(C)(=O)=O)C3)CC1	10.6	11.3	0.2	9	> 780	> 780	574 (≈ 1250 µM)	4 (≈ 8.69 µM)	4 (≈ 8.69 µM)	1 (≈ 2.17 µM)	–	–
